Experimental data taken from ChEMBL document CHEMBL1201862, “PubChem BioAssay data set” (2004).
Where “and” joins values, the source holds several entries; their conditions need not be identical. Equal entries are not always repeated. Calls of active or inactive are those of the source.

Tests used:
Streptokinase A = target: T1, Streptokinase A (Streptococcus pyogenes serotype M1, UniProt P10520); assay: viability-normalized secreted streptokinase activity reduction – plasminogen activation absorbance, OD405, dose response (AID 1914); type: functional, Streptococcus pyogenes M1 GAS;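 also: secreted streptokinase activity via plasminogen activation per viability signal from cell pellet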
T1 sequence (P10520 whole entry): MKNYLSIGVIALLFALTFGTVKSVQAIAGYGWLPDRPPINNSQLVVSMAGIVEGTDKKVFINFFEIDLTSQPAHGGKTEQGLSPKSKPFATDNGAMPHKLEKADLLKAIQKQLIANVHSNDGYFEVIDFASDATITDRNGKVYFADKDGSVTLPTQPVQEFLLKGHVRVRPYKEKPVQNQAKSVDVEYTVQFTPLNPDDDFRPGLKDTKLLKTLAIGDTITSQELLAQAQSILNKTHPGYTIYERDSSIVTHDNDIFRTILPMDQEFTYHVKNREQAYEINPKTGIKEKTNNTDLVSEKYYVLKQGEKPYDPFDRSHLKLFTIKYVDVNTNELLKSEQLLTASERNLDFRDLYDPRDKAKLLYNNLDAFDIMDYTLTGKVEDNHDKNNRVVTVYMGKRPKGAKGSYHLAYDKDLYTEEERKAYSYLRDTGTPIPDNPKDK

Streptococcus = assay: GAS UMAA2166 growth inhibition – luminescence, BacTiterGlo, counter-screen for streptokinase expression inhibitor project, dose response (AID 1915); type: functional, organism-based;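 also: potency for reduction of bacterial viability or growth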
[1] = Luminescence Cell-Based Dose Confirmation HTS to Identify Inhibitors of Platelet Dense Granule Release. [Related pubchem assays: 1663 (Primary HTS), 1678 (Summary of Project)]; type: functional
[2] = target: Luciferin 4-monooxygenase (Photinus pyralis, UniProt P08659); assay: inhibition of purified Photinus pyralis luciferase – biochemical, luminescence, dose response (AID 1891)
Chain of Luciferin 4-monooxygenase (P08659 whole entry): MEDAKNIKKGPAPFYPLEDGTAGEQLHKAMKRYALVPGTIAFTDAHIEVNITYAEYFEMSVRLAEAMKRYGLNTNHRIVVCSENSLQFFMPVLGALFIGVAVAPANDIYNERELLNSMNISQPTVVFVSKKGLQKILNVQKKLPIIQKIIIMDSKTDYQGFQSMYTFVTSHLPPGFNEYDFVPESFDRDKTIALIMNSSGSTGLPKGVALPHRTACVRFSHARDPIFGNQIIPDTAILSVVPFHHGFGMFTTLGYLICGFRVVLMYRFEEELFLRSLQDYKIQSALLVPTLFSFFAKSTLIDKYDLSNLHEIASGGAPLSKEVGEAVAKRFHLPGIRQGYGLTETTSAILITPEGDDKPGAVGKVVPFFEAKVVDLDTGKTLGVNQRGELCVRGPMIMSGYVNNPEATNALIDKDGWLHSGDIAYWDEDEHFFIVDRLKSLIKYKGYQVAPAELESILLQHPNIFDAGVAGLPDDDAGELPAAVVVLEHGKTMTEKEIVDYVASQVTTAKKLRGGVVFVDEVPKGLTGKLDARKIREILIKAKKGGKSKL

Cytochrome P450 2D6 = Cytochrome P450 2D6 (Homo sapiens, UniProt P10635);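 also: CYP2D6 member of a cytochrome P450 panel assay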
Chain of Cytochrome P450 2D6 (P10635 whole entry): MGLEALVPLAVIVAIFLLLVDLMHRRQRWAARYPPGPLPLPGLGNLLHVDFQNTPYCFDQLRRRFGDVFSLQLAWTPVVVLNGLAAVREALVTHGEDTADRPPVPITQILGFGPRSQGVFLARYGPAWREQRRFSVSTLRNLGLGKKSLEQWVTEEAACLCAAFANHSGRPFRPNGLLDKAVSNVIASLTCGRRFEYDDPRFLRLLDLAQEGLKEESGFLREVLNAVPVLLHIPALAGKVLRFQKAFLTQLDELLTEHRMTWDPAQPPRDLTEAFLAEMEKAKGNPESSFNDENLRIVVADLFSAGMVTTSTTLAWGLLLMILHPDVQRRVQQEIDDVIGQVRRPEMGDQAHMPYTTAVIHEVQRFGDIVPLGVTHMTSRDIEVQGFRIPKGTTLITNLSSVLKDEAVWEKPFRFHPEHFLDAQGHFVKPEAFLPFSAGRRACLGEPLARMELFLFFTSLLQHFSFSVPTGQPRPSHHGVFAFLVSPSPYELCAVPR

[3] = target: T2, Heat shock factor protein 1 (Mus musculus, UniProt P38532); assay: enhancement of HSF1-driven luciferase signal – cell-based, NIH3T3, luminescence, dose retest, confirmation (AID 435004); type: functional;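 also: stress induced by proteasome inhibitor MG132 added 30 min after compound; luciferase reporter driven by HSF1 response element in NIH3T3 cells; actives raise luminescence as potentiators of the MG132 stress response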
T2 sequence (P38532 whole entry): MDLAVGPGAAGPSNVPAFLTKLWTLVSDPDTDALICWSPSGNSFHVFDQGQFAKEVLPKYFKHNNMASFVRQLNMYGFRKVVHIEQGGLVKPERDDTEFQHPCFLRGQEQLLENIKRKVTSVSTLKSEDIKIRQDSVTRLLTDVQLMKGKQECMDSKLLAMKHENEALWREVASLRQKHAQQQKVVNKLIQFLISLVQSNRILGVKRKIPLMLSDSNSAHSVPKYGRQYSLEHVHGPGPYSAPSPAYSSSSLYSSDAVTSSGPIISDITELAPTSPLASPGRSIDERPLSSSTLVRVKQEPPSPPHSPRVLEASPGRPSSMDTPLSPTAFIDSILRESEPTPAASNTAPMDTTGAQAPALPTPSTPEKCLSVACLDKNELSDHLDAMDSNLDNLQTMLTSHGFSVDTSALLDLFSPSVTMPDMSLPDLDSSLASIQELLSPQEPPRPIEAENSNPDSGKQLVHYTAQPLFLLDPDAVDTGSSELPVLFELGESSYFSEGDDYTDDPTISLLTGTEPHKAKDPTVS

[4] = NIH3T3 cell viability loss – ATP luminescence, mouse fibroblasts, counter-screen, dose response (AID 2010); type: functional, cell-based;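 also: cells exposed to compound for about 90 hours before reading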
[5] = Trypanosoma cruzi growth suppression in host cells – NIH3T3 host cells, beta-gal luminescence, confirmation (AID 2044); type: functional, cell-based;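 also: intracellular parasites grown in NIH/3T3 mouse fibroblasts as host cells; luminescent beta-galactosidase reporter signal from transgenic T. cruzi replicating inside host cells; inhibitors lower the luminescence signal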
Cytochrome P450 3A4 = Cytochrome P450 3A4 (Homo sapiens, UniProt P08684);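 also: CYP3A4 tested as one member of a cytochrome P450 panel screen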
Chain of Cytochrome P450 3A4 (P08684 whole entry): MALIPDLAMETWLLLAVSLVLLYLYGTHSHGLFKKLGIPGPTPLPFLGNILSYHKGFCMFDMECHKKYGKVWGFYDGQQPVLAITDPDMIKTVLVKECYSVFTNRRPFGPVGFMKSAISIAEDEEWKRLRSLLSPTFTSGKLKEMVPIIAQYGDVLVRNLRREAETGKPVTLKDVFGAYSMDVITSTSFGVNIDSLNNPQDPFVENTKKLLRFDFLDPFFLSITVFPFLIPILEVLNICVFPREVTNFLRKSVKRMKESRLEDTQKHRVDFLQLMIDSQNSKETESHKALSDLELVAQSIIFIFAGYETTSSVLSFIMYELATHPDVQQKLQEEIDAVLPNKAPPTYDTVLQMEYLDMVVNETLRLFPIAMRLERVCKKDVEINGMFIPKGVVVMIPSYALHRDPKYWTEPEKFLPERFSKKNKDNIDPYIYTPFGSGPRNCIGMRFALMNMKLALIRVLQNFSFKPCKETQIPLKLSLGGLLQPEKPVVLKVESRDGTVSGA

Cytochrome P450 2C19 = Cytochrome P450 2C19 (Homo sapiens, UniProt P33261); assay: Cytochrome panel assay with activity outcomes. Panel member name: p450-cyp2c19 Compounds with AC50 equal or less than 10 uM are considered active; type: functional; settings: read-out: AC50
Chain of Cytochrome P450 2C19 (P33261 whole entry): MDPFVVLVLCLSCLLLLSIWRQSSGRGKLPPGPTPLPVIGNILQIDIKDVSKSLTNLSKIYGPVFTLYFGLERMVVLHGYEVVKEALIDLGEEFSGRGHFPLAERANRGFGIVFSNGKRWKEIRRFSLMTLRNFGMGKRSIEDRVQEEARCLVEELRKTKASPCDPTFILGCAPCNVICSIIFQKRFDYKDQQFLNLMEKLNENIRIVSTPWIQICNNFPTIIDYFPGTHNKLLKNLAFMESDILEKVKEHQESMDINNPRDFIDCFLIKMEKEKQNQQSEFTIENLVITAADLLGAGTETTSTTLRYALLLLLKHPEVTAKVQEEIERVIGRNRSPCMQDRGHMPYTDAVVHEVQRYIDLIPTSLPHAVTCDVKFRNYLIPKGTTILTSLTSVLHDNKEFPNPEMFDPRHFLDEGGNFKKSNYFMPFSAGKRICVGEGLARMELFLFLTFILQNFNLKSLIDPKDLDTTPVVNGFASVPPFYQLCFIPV

Cytochrome P450 1A2 = target: T3, Cytochrome P450 1A2 (Homo sapiens, UniProt P05177);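 also: PubChem cytochrome P450 panel assay, CYP1A2 panel member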
T3 sequence (P05177 whole entry): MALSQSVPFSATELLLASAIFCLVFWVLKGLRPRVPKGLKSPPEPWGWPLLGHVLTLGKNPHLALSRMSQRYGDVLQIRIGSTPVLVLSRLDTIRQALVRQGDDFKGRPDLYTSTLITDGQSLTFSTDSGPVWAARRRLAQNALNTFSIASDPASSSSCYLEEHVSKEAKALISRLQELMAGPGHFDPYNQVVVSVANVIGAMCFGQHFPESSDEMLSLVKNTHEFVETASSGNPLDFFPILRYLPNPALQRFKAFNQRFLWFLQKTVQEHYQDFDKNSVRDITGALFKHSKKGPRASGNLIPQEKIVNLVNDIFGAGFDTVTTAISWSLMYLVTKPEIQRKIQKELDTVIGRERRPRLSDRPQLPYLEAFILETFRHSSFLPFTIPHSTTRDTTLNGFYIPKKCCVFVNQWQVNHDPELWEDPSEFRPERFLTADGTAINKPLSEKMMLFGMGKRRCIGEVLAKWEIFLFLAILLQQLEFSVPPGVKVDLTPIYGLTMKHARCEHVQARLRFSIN

Cytochrome P450 2C9 = Cytochrome P450 2C9 (Homo sapiens, UniProt P11712)
Chain of Cytochrome P450 2C9 (P11712 whole entry): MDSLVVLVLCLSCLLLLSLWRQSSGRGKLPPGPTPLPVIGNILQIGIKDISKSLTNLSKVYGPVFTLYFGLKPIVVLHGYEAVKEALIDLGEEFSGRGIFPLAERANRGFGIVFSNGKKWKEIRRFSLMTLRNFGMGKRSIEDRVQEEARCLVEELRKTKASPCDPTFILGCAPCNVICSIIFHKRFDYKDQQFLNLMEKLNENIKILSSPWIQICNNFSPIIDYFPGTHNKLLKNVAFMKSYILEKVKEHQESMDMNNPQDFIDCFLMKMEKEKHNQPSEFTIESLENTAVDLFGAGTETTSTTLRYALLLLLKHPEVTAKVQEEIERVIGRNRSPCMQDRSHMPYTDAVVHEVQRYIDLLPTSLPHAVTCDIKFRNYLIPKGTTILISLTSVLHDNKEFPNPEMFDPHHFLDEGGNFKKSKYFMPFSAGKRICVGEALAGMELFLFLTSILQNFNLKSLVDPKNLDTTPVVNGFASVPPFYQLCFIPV

[6] = test system: Streptococcus sp. 'group A'; assay: Streptococcus pyogenes SK(-)GAS viability under kanamycin – luminescence, BacTiterGlo, confirmation, counter-screen for streptokinase expression inhibitor project, dose response (AID 1900); type: functional, organism-based
[7] = Luminescence Cell-Based Dose Retest to Confirm Inhibitors of Cancer Stem Cells. [Related pubchem assays (depositor defined):AID2717, AID2721]; type: functional; settings: Homo sapiens
[8] = Luminescence Cell-Based Dose Response HTS to Identify Inhibitors of 5'UTR Stem-Loop Driven Prion Protein mRNA Translation in H4 Neuroglioblastoma Cells. [Related pubchem assays: 1827 (Project Summary), 1813 (Primary HTS)]; type: functional
[9] = luciferase reporter signal suppression in cells – H4 neuroglioma cells, luminescence, dose response (AID 1990); type: functional, cell-based
[10] = alpha-synuclein stem-loop luciferase translation blockers – H4 neuroglioma cells, luminescence, confirmation (AID 1988); type: functional, cell-based

CC(=O)Nc1nnc(S(=O)(=O)N2CCN(c3ccc([N+](=O)[O-])cc3Cl)CC2)s1
EC50 (Streptokinase A): > 150 µM (not active) | EC50 (Streptococcus): > 150 µM (not active)

COC(=O)c1cccc([N+](=O)[O-])c1CN1CCCC(C(N)=O)C1 (configuration not stated)
EC50 [1]: > 112 µM (not active) | EC50 [2]: > 112 µM (not active)

COc1cccc(Oc2c(C)oc3c(CN4CCCCC4)c(O)ccc3c2=O)c1
EC50 [1]: 19.2 µM (active) | EC50 [2]: > 112 µM (not active)

C[C@@H](C(=O)Nc1ccc2ccccc2c1)[C@@H]1C[C@@]1(C)[C@@H](NC(=O)OCc1ccccc1)c1ccccc1
AC50 (Cytochrome P450 2D6): 12.6 µM (inconclusive)

Cc1ccc(C(c2c(C)nn(-c3ccccc3)c2N)c2c(C)nn(-c3ccccc3)c2N)cc1
EC50 [3]: > 260 µM (inactive)

O=C(COc1ccc(Cl)cc1)Nc1ccc(Cc2ccncc2)cc1
EC50 [1]: > 112 µM (not active) | EC50 [2]: > 112 µM (not active)

COc1ccc(C(=O)N2CCC3(CC2)CN(c2ccc(-c4ccccc4)cc2)C3)cc1
AC50 (Cytochrome P450 2D6): 15.8 µM (inconclusive)

C/C(Cn1cnc([N+](=O)[O-])n1)=N\NC(=O)c1ccccc1F
EC50 [4]: > 60 µM (not active) | EC50 [5]: 1.25 µM (active) | EC50 [3]: > 260 µM (inactive)

CN(C)C(=O)c1ccc(-c2ccc3ncnc(Nc4ccccc4)c3c2)cc1
AC50 (Cytochrome P450 2D6): 12.6 µM (inconclusive) | AC50 (Cytochrome P450 3A4): 7.94 µM (inconclusive)

Cc1nn(C)c(Oc2ccccc2)c1CCNS(=O)(=O)c1ccc(Cl)cc1
EC50 [3]: > 260 µM (inactive)

COc1ccc(N(CC(=O)N2CCc3ccccc32)S(=O)(=O)c2c(C)noc2C)cc1
EC50 [3]: 56.1 µM (active)

COC(=O)[C@@]1(Cc2ccccc2)[C@H]2c3cc(C(=O)N4CCCC4)n(Cc4ccsc4Br)c3C[C@H]2CN1C(=O)c1ccccc1
AC50 (Cytochrome P450 2D6): 12.6 µM (inconclusive)

Cc1nc(N2CCC(C)CC2)c2c(C)c(C(=O)Nc3cccc(C(F)(F)F)c3)sc2n1
EC50 [3]: > 260 µM (inactive)

O=[N+]([O-])c1cc([N+](=O)[O-])c(Oc2c(F)cccc2F)cc1NN1CCCCC1
EC50 [3]: > 260 µM (inactive)

CCS(=O)(=O)c1ccc2oc(Nc3ccccc3Cl)nc2c1
EC50 [1]: 7.7 µM (active) | EC50 [2]: 1.75 µM (active)

CCOCCn1c(CN(Cc2ccccc2)Cc2ccccc2)nc2c1c(=O)[nH]c(=O)n2C
AC50 (Cytochrome P450 2D6): 39.8 µM (inconclusive) | AC50 (Cytochrome P450 2C19): 17.8 µM (inconclusive)

Cc1nn(C(C)C(=O)N2CCc3ccccc3C2)c(=O)c2cc3occc3n12 (configuration not stated)
EC50 [1]: > 112 µM (not active) | EC50 [2]: > 112 µM (not active)

COC(=O)[C@@]1(Cc2ccccc2)[C@H]2c3cc(C(=O)N4CCCC4)n(Cc4ccc(O)c(OC)c4)c3C[C@H]2CN1C(=O)c1ccccc1
AC50 (Cytochrome P450 2D6): 20 µM (inconclusive) | AC50 (Cytochrome P450 1A2): 25.1 µM (inconclusive)

COc1ccc(-c2coc3cc4oc(=O)c(CC(=O)O)c(C)c4cc23)cc1
EC50 [3]: > 260 µM (inactive)

COC(=O)c1ccc(CSc2nnnn2-c2ccc(C)cc2C)o1
EC50 [3]: > 260 µM (inactive)

CCC(=O)Nc1cccc(C(=O)/C=C/c2ccc(F)cc2)c1
EC50 [3]: 11.6 µM (active)

COCCNC(=O)/C(C#N)=C/c1ccc(OC(=O)c2cccs2)c(OC)c1
EC50 [3]: > 260 µM (inactive)

Cc1ccccc1C(=O)N/N=C/c1ccncc1
AC50 (Cytochrome P450 2D6): 22.4 µM (inconclusive)

Cc1ccc(CN(C(=O)c2csnn2)C(C(=O)NC2CCCC2)c2ccc(C)o2)cc1 (configuration not stated)
EC50 [1]: > 112 µM (not active) | EC50 [2]: 67.6 µM (active)

O=C(N/C(=C/c1cccs1)c1nc2ccccc2[nH]1)c1ccccc1
AC50 (Cytochrome P450 2D6): 28.2 µM (inconclusive) | AC50 (Cytochrome P450 1A2): 25.1 µM (inconclusive) | AC50 (Cytochrome P450 2C9): 7.94 µM (inconclusive)

Cn1ccc2cc3c(cc21)CCN3C(=O)Nc1cccnc1
AC50 (Cytochrome P450 2D6): 31.6 µM (inconclusive) and 20 µM (inconclusive)

CCC(C)(C)NC(=O)C(c1ccc(C)cc1)N(Cc1cccs1)C(=O)c1ccc2c(c1)OCCO2 (configuration not stated)
EC50 [3]: > 260 µM (inactive)

COc1ccccc1CNc1ccnc(-c2cccc(NS(C)(=O)=O)c2)n1
AC50 (Cytochrome P450 2D6): 39.8 µM (inconclusive)

C/C(N)=C(/C#N)C(=O)CSc1nnc(-c2ccc3c(c2)OCO3)o1
EC50 [3]: > 260 µM (inactive)

O=C(Nc1ccc(Cl)cn1)c1ccc(-c2ccc(Cl)c(Cl)c2)o1
EC50 [1]: > 112 µM (not active) | EC50 [2]: > 112 µM (not active)

CN(C)/C=C(\C=N\OCc1ccc(Cl)cc1Cl)C(=O)Nc1ccc(Cl)c(Cl)c1
EC50 [6]: 0.618 µM (active) | EC50 (Streptococcus): 3.07 µM (active) | AC50 [7]: 1.5 µM (active)

COc1cccc(Cn2c(=O)cnc3cnc(N4CCN(C)CC4)nc32)c1
AC50 (Cytochrome P450 2D6): 20 µM (inconclusive) | AC50 (Cytochrome P450 1A2): 25.1 µM (inconclusive) | AC50 (Cytochrome P450 2C9): 25.1 µM (inconclusive)

COc1ccc(C(C[N+](=O)[O-])C2(c3ccc(OC)c(OC)c3)C(=O)c3ccccc3C2=O)cc1 (configuration not stated)
EC50 [3]: 13.3 µM (active)

COCCOC(=O)c1c(C)nc(SCC(=O)Nc2ccc(C)cc2)c(C#N)c1-c1ccco1
EC50 (Streptokinase A): > 150 µM (not active) | EC50 (Streptococcus): 53.5 µM (active)

COC(=O)C1=C(C)N=C2SCCC(=O)N2C1c1ccc(OC(=O)c2ccco2)cc1 (configuration not stated)
EC50 [1]: > 112 µM (not active) | EC50 [2]: > 112 µM (not active)

CC(C)NC[C@H]1CCc2cc(CO)c([N+](=O)[O-])cc2N1
AC50 (Cytochrome P450 2D6): 6.31 µM (inconclusive) | AC50 (Cytochrome P450 1A2): 10 µM (inconclusive)

ClC(Cl)c1nnc(-c2ccccc2)c(-c2c[nH]c3ccccc23)n1
EC50 [3]: 81.5 µM (active)

O=C(NCCc1ccccc1)N1c2ccccc2Sc2ccccc21
EC50 [3]: > 260 µM (inactive)

COc1cc2c(cc1OC)-c1cc(NC3CCCCC3)nc(=O)n1CC2
EC50 [8]: > 120 µM (not active) | EC50 [1]: 2.24 µM (active) | EC50 [9]: 20 µM (active) | EC50 [2]: > 112 µM (not active) | EC50 [10]: 33.2 µM (active)

CC(C)n1nc(C(=O)Nc2ccccc2N2CCOCC2)c2ccccc2c1=O
EC50 [1]: 26.7 µM (active) | EC50 [2]: > 112 µM (not active)

CC(C)CN(C(=O)c1cccs1)C1CCS(=O)(=O)C1 (configuration not stated)
EC50 [3]: > 260 µM (inactive)

O=C(NC1CCCCC1)C(Cc1ccccc1)N1C(=O)C2C3CCC(C3)C2C1=O (configuration not stated)
AC50 (Cytochrome P450 2D6): 31.6 µM (inconclusive) | AC50 (Cytochrome P450 2C9): 0.1 µM (inconclusive)

COC(=O)[C@@]1(Cc2ccc(F)cc2)[C@H]2c3cc(C(=O)N(C)C)n(Cc4ccc(O)c(OC)c4)c3C[C@H]2CN1C(=O)c1ccccc1
AC50 (Cytochrome P450 2D6): 20 µM (inconclusive) | AC50 (Cytochrome P450 1A2): 25.1 µM (inconclusive)
